Tests used:
Solubility at pH 2 = format: physicochemical; details: Table 4, literature compounds
[1] = system: female Sprague-Dawley rats, oxazolone (OX) contact dermatitis; assay: In Vivo Inflammation Assay (oxazolone contact dermatitis model); set-up: key to Inflammation Assay Glucose Effect / GL *: +: the glucose level increased compared to vehicle; −: the glucose level decreased compared to vehicle; details: Table 4, literature compounds
Protocol: In Vivo Inflammation Assay
Intact adult (6 month old) female Sprague-Dawley rats are used in the oxazolone (OX) contactdermatitis model. Rats were sensitized on the ventral abdomen with OX on Day 0. On Days 7 and 9, a randomly-selected ear was challenged (same ear each time) with OX; the other was treated with vehicle. Daily treatment begun on Day 7 and continued for 7d with test compounds at different doses and 1.3 mpk 6-methlyprednisolone or 0.1 mpk DEX as positive controls. The thickness of both ears are measured on Days 11 and 14. Necropsy occurred on Day 14. The rat is first weighed, then anesthetized in a CO2 chamber until near death. Approximately 5 ml whole blood is obtained by cardiac puncture. The rat is then examined for certain signs of death and completeness. Tissues are dissected in a highly stylized fashion. Then the following endpoints were evaluated: a) inhibiting ear inflammation induced by oxazalone, b) raising serum insulin, c) reducing serum ACTH, d) reducing spleen weight, e) reducing skin thickness, f) reducing body weight, g) increasing expression of bone-related genes with potential relationship to negative glucocorticoid effects on bone; e) changes in molecular markers that correlate with skin inflammation, skin thinning, muscle atrophy and glucose metabolism in liver. All blood samples were collected between 1330-1530 hours, ˜4-5 hrs after the last compound treatment.
Primary data for this assay are left and right ear thickness. Inter-ear thickness difference (etd) is used for the estimating the level of inflammation and effectiveness of the compounds is determined by their ability to reduce the increase the thickness of the inflamed ear. Back of the rat skin thickness, spleen weight, serum insulin as well as the effects of gcs on the expression of molecular markers in skin inflammation, skin atrophy, muscle atrophy and glucose metabolism in liver are measured. Data are analyzed by anova plus fisher plsd post-hoc test to identify intergroup differences.

C[C@]12Cc3cnn(-c4ccc(F)cc4)c3C=C1CCC[C@@H]2[C@@H](O)c1ccc(F)cc1 [Ex. 32 WO 03/086294 A2, reference compound]
solubility (Solubility at pH 2): poor | AI* ([1]; anti-inflammatory effect): + (the anti-inflammatory activity was equal to or greater than 40% of the effect generated by the control compound) | GL * ([1]; glucose effect): +
